# Counter-ions that a name gives are not always drawn.
# Target: T1, Lp-PLA2 in human plasma (Homo sapiens, UniProt Q13093)
# T1 construct: from tissue; host or cells: pooled human plasma
# T1 sequence (Q13093 22-441): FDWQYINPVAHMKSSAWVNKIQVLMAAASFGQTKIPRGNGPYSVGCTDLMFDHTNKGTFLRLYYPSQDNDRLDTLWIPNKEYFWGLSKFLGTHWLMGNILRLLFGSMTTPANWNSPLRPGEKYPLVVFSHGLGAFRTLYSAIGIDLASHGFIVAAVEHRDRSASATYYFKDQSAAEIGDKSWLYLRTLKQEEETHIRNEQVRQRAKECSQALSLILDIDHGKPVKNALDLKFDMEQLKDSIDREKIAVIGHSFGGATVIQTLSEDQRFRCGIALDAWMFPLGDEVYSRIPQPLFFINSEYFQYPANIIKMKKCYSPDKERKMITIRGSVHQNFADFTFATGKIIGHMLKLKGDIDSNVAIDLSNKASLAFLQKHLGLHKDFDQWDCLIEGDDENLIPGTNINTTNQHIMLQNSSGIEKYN
# Experiment: (3b) Lp-PLA2 human plasma alternative Thio-PAF assay
# Type: biochemical
# Details: (3b) alternative Thio-PAF assay, pooled human plasma; Examples of 266-412 were tested here; read-out: pIC50 in the Lp-PLA2 human plasma assay (converted)
# Description: (3b) Alternative Thio-PAF Assay
# The human plasma assay utilizes the same thioester analog of PAF as described in (1b) “hr ThioPAF” assay. This assay may detect the activity of Lp-PLA2 in human plasma, as determined by specific inhibition by Lp-PLA2 inhibitors.
# The thio-PAF assay was run as a quenched 20 μL assay. Compounds source plate was prepared by making 1:3 (by volume) serial dilution of the compounds into pure DMSO on 96-well microplate. 5 μL of compounds on compound source plate were transferred to 96-well Corning 3686 (black) low-volume plates by STAR+(Hamilton) liquid dispenser. 10 μL pooled human plasma, which was previously aliquoted and frozen, was added. Plates were centrifuged for 30 sec at 1000 rpm. After 15 minutes preincubation at room temperature, 5 μL of substrate solution comprising 2 mM 2-thio-PAF [from ethanol stock], 52 μM CPM [from a DMSO stock] and 2.5 mM NEM (N-ethylmaleimide) [made fresh daily in DMSO] in assay buffer (50 mM HEPES, pH 7.4, 150 mM NaCl, 1 mM CHAPS) was added to 96-well Corning 3686 (black) low-volume plates. After 3 mins, reaction was quenched with 10 μL of 5% aqueous trifluoroacetic acid (TFA). Plates were centrifuged 30 sec at 1000 rpm, covered to protect from light and incubated for 10 min at room temperature. Plates were read at ex: 380 nm/em: 485 nm using Envision plate reader (Perkin Elmer). Raw data were transferred to Excel software and pIC50 data, curve and QC analysis was conducted by using XL fit module in Excel.
row,Compound,IC50 [µM]
1,"CCOC(=O)C(C)N1CCN2c3cc(OCc4ccc(F)c(F)c4)nc(=O)n3CC2C1 (single isomer, unassigned) [Example E327, Ethyl 2-(7-((3,4-difluorobenzyl)oxy)-9-oxo-3,4,11,11a-tetrahydro-1H-pyrazino[1′,2′:3,4]imidazo[1,2-c]pyrimidin-2(9H)-yl)propanoate]",≤ 0.1
2,"CN1c2cc(OCc3ccc(F)c(F)c3)nc(=O)n2CC12COC2 [Example 398, 7-((3,4-Difluorobenzyl)oxy)-1-methyl-1H-spiro[imidazo[1,2-c]pyrimidine-2,3′-oxetan]-5(3H)-one]",≤ 0.1
3,"Cc1ccc(Oc2c(F)cc(COc3cc4n(c(=O)n3)CC3(COC3)N4C)cc2C#N)cn1 [Example 399, 3-Fluoro-5-(((1-methyl-5-oxo-3,5-dihydro-1H-spiro[imidazo[1,2-c]pyrimidine-2,3′-oxetan]-7-yl)oxy)methyl)-2-((6-methylpyridin-3-yl)oxy)benzonitrile]",≤ 0.1
4,"Cc1ccc(Oc2c(F)cc(COc3cc4n(c(=O)n3)CC3(COC3)N4C)cc2F)cn1 [Example 400, 7-((3,5-Difluoro-4-((6-methylpyridin-3-yl)oxy)benzyl)oxy)-1-methyl-1H-spiro[imidazo[1,2-c]pyrimidine-2,3′-oxetan]-5(3H)-one]",≤ 0.1

# Target: T2, recombinant human Lp-PLA2 (Homo sapiens, UniProt Q13093)
# T2 sequence (Q13093 22-441): T1 sequence (Q13093 22-441)
# Experiment: (1b) hrThioPAF assay, recombinant human Lp-PLA2
# Type: biochemical
# Details: Examples 266-412 were tested here, one experiment or average of multiple experiments, read-out: rhLp-PLA2 (pIC50) (converted)
# Excerpt: 1-O-Hexadecyl-2-deoxy-2-thio-S-acetyl-sn-glyceryl-3-phosphorylcholine (2-thio-PAF) is a substrate for PAF-hydrolases (PAF-AH) commercially available from Cayman Chemical. Upon cleavage with PAF-AH, the free thiol is released at the sn-2 position and can then react with 7-diethylamino-3-(4′-maleimidylphenyl)-4-methylcoumarin (CPM) a thiol-reactive coumarin. This reaction (Michael addition) results in an increase in fluorescence. Inhibitors of Lp-PLA2 therefore prevent this cleavage and no fluorescent increase is observed.
# The Thio-PAF assay was run as an unquenched 20 μL assay. The source plate containing the compounds to be tested was prepared by making 1:3 (by volume) serial dilution of the compounds within DMSO on 384-well microplate. Then, 5 μL of the compounds on compound source plate were transferred into 384 well Greiner 784076 (black) plates using STAR+(Hamilton) liquid dispenser. 10 μL of recombinant human Lp-PLA2 enzyme (20 pM rhLp-PLA2 in assay buffer of 50 mM HEPES, pH 7.4, 150 mM NaCl, 1 mM CHAPS) was added to each well of the plate. 5 μL of substrate comprising 40 μM 2-thio-PAF [from ethanol stock], 40 μM CPM [from a DMSO stock] and 400 μM NEM (N-ethylmaleimide) [made fresh daily in DMSO] in assay buffer (50 mM HEPES, pH 7.4, 150 mM NaCl, 1 mM CHAPS) was added to 384 well Greiner 784076 black plates. Plates were vortexed for 10 sec. The plate was covered to protect it from light and incubated for 20 min at 25° C. The plates were read for fluorescence intensity at ex: 380 nm/em: 485 nm using Envision plate reader (Perkin Elmer). Raw data were transferred to Excel software and pIC50 data, curve and QC analysis was conducted by using XL fit module in Excel.
row,Compound,IC50 [µM]
1,"CN1c2cc(OCc3ccc(F)c(F)c3)nc(=O)n2CC12COC2 [Example 398, 7-((3,4-Difluorobenzyl)oxy)-1-methyl-1H-spiro[imidazo[1,2-c]pyrimidine-2,3′-oxetan]-5(3H)-one]",≤ 10
2,"Cc1ccc(Oc2c(F)cc(COc3cc4n(c(=O)n3)CC3(COC3)N4C)cc2C#N)cn1 [Example 399, 3-Fluoro-5-(((1-methyl-5-oxo-3,5-dihydro-1H-spiro[imidazo[1,2-c]pyrimidine-2,3′-oxetan]-7-yl)oxy)methyl)-2-((6-methylpyridin-3-yl)oxy)benzonitrile]",≤ 10
3,"Cc1ccc(Oc2c(F)cc(COc3cc4n(c(=O)n3)CC3(COC3)N4C)cc2F)cn1 [Example 400, 7-((3,5-Difluoro-4-((6-methylpyridin-3-yl)oxy)benzyl)oxy)-1-methyl-1H-spiro[imidazo[1,2-c]pyrimidine-2,3′-oxetan]-5(3H)-one]",≤ 10
4,"N#Cc1cc(COc2cc3n(c(=O)n2)CC2CNCCN32)ccc1OC1CCC1 (stereo not shown) [Example E316, 2-Cyclobutoxy-5-(((9-oxo-2,3,4,9,11,11a-hexahydro-1H-pyrazino[1′,2′:3,4]imidazo[1,2-c]pyrimidin-7-yl)oxy)methyl)benzonitrile]",≤ 10
5,"N#Cc1cc(COc2cc3n(c(=O)n2)CC2CNCCN32)ccc1OC1CCCC1 (stereo not shown) [Example E317, 2-(Cyclopentyloxy)-5-(((9-oxo-2,3,4,9,11,11a-hexahydro-1H-pyrazino[1,2′:3,4]imidazo[1,2-c]pyrimidin-7-yl)oxy)methyl)benzonitrile]",≤ 0.1
6,"N#Cc1cc(CNc2cc3n(c(=O)n2)CC2CNCCN32)ccc1F (stereo not shown) [Example E319, 2-Fluoro-5-(((9-oxo-2,3,4,9,11,11a-hexahydro-1H-pyrazino[1′,2′:3,4]imidazo[1,2-c]pyrimidin-7-yl)amino)methyl)benzonitrile hydrochloride]",≤ 10
7,"O=C(O)C(C1CC1)N1CCN2c3cc(OCc4ccc(F)c(F)c4)nc(=O)n3CC2C1 (stereo not shown) [Example E328, 2-Cyclopropyl-2-(7-((3,4-difluorobenzyl)oxy)-9-oxo-3,4,11,11a-tetrahydro-1H-pyrazino[1′,2′:3,4]imidazo[1,2-c]pyrimidin-2(9H)-yl)acetic acid, trifluoroacetic acid Salt]",≤ 10
8,"O=C1CN2c3cc(OCc4cccc(F)c4F)nc(=O)n3CC2CN1 (stereo not shown) [Example E348, 7-((2,3-Difluorobenzyl)oxy)-11,11a-dihydro-1H-pyrazino[1′,2′:3,4]imidazo[1,2-c]pyrimidine-3,9(2H,4H)-dione]",≤ 10
9,"N#Cc1cc(COc2ccc(COc3cc4n(c(=O)n3)CC3CNC(=O)CN43)cc2C#N)ccc1F (stereo not shown) [Example E350, 5-((2-cyano-4-(((3,9-dioxo-2,3,4,9,11,11a-hexahydro-1H-pyrazino[1′,2′:3,4]imidazo[1,2-c]pyrimidin-7-yl)oxy)methyl)phenoxy)methyl)-2-fluorobenzonitrile]",≤ 10
10,"O=C1CN2c3cc(NCc4ccc(F)c(F)c4)nc(=O)n3CC2CN1 (stereo not shown) [Example E353, 7-((3,4-Difluorobenzyl)amino)-11,11a-dihydro-1H-pyrazino[1′,2′:3,4]imidazo[1,2-c]pyrimidine-3,9(2H,4H)-dione]",≤ 10
11,"N#Cc1cc(CNc2cc3n(c(=O)n2)CC2CNC(=O)CN32)ccc1F (stereo not shown) [Example E354, 5-(((3,9-dioxo-2,3,4,9,11,11a-hexahydro-1H-pyrazino[1′,2′:3,4]imidazo[1,2-c]pyrimidin-7-yl)amino)methyl)-2-fluorobenzonitrile, trifluoroacetic acid salt]",≤ 10
12,"O=c1nc(OCc2cccc(F)c2F)cc2n1CC1CSCCN21 (stereo not shown) [Example E361, 7-((2,3-Difluorobenzyl)oxy)-3,4,11,11a-tetrahydropyrimido[6′,1′:2,3]imidazo[5,1-c][1,4] thiazin-9(1H)-one]",≤ 10
13,"O=c1nc(OCc2cccc(F)c2F)cc2n1CC1C[S+]([O-])CCN21 (stereo not shown) [Example E362, 7-((2,3-Difluorobenzyl)oxy)-3,4,11,11a-tetrahydropyrimido[6′,1′:2,3]imidazo[5,1-c][1,4] thiazin-9(1H)-one 2-oxide]",≤ 10
14,"O=c1nc(OCc2cccc(F)c2F)cc2n1CC1CS(=O)(=O)CCN21 (stereo not shown) [Example E363, 7-((2,3-Difluorobenzyl)oxy)-3,4,11,11a-tetrahydropyrimido[6′,1′:2,3]imidazo[5,1-c][1,4] thiazin-9(1H)-one 2,2-dioxide]",≤ 10
15,"N#Cc1cc(COc2ccc(COc3cc4n(c(=O)n3)CC3CSCCN43)cc2C#N)ccc1F (stereo not shown) [Example E365, 5-((2-Cyano-4-(((9-oxo-1,3,4,9,11,11a-hexahydropyrimido[6′,1′:2,3]imidazo[5,1-c][1,4]thiazin-7-yl)oxy)methyl)phenoxy)methyl)-2-fluorobenzonitrile]",≤ 10
16,"O=c1nc(NCc2ccc(F)c(F)c2)cc2n1CC1CSCCN21 (stereo not shown) [Example E374, 7-((3,4-Difluorobenzyl)amino)-3,4,11,11a-tetrahydropyrimido[6′,1′:2,3]imidazo[5,1-c][1,4]thiazin-9(1H)-one]",≤ 10
17,"O=c1nc(NCc2ccc(F)c(F)c2)cc2n1CC1C[S+]([O-])CCN21 (stereo not shown) [Example E375, 7-((3,4-Difluorobenzyl)amino)-3,4,11,11a-tetrahydropyrimido[6′,1′:2,3]imidazo[5,1-c][1,4]thiazin-9(1H)-one 2-oxide]",≤ 10
18,"O=c1nc(NCc2cccc(F)c2F)cc2n1CC1CSCCN21 (stereo not shown) [Example E377, 7-((2,3-Difluorobenzyl)amino)-3,4,11,11a-tetrahydropyrimido[6′,1′:2,3]imidazo[5,1-c][1,4]thiazin-9(1H)-one]",≤ 10
19,"Cc1ccc(Oc2c(F)cc(COc3cc4n(c(=O)n3)C[C@@H]3C[C@H](O)CN43)cc2F)cn1 [Example E385, (7S,8aS)-3-((3,5-Difluoro-4-((6-methylpyridin-3-yl)oxy)benzyl)oxy)-7-hydroxy-7,8,8a,9-tetrahydropyrrolo[1′,2′:3,4]imidazo[1,2-c]pyrimidin-1(6H)-one]",≤ 10
20,"N#Cc1cc(COc2cc3n(c(=O)n2)C[C@H]2C[C@@H](N)CN32)ccc1F [Example E389, 5-((((7R,8aR)-7-Amino-1-oxo-1,6,7,8,8a,9-hexahydropyrrolo[1′,2′:3,4]imidazo[1,2-c]pyrimidin-3-yl)oxy)methyl)-2-fluorobenzonitrile]",≤ 10
21,Cn1cc(Oc2c(F)cc(COc3cc4n(c(=O)n3)CC3(COC3)N4)cc2F)cn1 [Example E393],≤ 10

# From US11999746B2, “Compounds” (GlaxoSmithKline Intellectual Property Development Limited, priority 2014, dated 2024)
